Source: patent US8580794B2 (AbbVie Inc., priority 2009, dated 2013)

These compounds were tested against GST-Bc1-2 (Homo sapiens, UniProt P10415) (assay: Time Resolved-Fluorescence Resonance Energy Transfer (TR-FRET) Bcl-2 binding assay with F-Bak peptide probe). Details: GST-Bcl-2 1 nM, F-Bak probe 100 nM, Tb-anti-GST 1 nM; '<' = below limit of detection; read-out: TR-FRET Bcl-2 Binding Ki.
GST-Bc1-2, sequence (P10415 whole entry): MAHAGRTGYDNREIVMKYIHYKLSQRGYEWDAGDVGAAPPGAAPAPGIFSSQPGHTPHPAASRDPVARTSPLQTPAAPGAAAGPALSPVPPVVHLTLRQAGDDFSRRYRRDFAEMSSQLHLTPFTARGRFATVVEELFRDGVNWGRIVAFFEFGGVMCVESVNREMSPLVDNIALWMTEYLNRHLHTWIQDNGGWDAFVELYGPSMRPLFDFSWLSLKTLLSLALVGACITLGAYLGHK

Row | Compound | Ki [nM]
1 | CC1(C)CCC(CN2CCN(c3ccc(C(=O)NS(=O)(=O)c4ccc(OCC5(F)CCN(C6CCOCC6)CC5)c([N+](=O)[O-])c4)c(Oc4cnc5[nH]ccc5c4)c3)CC2)=C(c2ccc(Cl)cc2)C1 [Example 192, 4-(4-{[2-(4-chlorophenyl)-4,4-dimethylcyclohex-1-en-1-yl]methyl}piperazin-1-yl)-N-({4-[(4-fluoro-1-tetrahydro-2H-pyran-4-ylpiperidin-4-yl)methoxy]-3-nitrophenyl}sulfonyl)-2-(1H-pyrrolo[2,3-b]pyridin-5-yloxy)benzamide] | < 0.01
2 | CC1(C)CCC(CN2CCN(c3ccc(C(=O)NS(=O)(=O)c4ccc(OCC5(F)CCN(C6CCOC6)CC5)c([N+](=O)[O-])c4)c(Oc4cnc5[nH]ccc5c4)c3)CC2)=C(c2ccc(Cl)cc2)C1 (stereo not drawn) [Example 193, 4-(4-{[2-(4-chlorophenyl)-4,4-dimethylcyclohex-1-en-1-yl]methyl}piperazin-1-yl)-N-({4-[(4-fluoro-1-tetrahydrofuran-3-ylpiperidin-4-yl)methoxy]-3-nitrophenyl}sulfonyl)-2-(1H-pyrrolo[2,3-b]pyridin-5-yloxy)benzamide] | < 0.01
3 | CC1(C)CCC(CN2CCN(c3ccc(C(=O)NS(=O)(=O)c4ccc(OCC5(F)CCN(S(C)(=O)=O)CC5)c([N+](=O)[O-])c4)c(Oc4cnc5[nH]ccc5c4)c3)CC2)=C(c2ccc(Cl)cc2)C1 [Example 194, 4-(4-{[2-(4-chlorophenyl)-4,4-dimethylcyclohex-1-en-1-yl]methyl}piperazin-1-yl)-N-[(4-{[4-fluoro-1-(methylsulfonyl)piperidin-4-yl]methoxy}-3-nitrophenyl)sulfonyl]-2-(1H-pyrrolo[2,3-b]pyridin-5-yloxy)benzamide] | < 0.01
4 | CC1(C)CCC(CN2CCN(c3ccc(C(=O)NS(=O)(=O)c4ccc(NC[C@H]5CCN(C6COC6)C5)c([N+](=O)[O-])c4)c(Oc4cnc5[nH]ccc5c4)c3)CC2)=C(c2ccc(Cl)cc2)C1 [Example 195, 4-(4-{[2-(4-chlorophenyl)-4,4-dimethylcyclohex-1-en-1-yl]methyl}piperazin-1-yl)-N-{[3-nitro-4-({[(3R)-1-oxetan-3-ylpyrrolidin-3-yl]methyl}amino)phenyl]sulfonyl}-2-(1H-pyrrolo[2,3-b]pyridin-5-yloxy)benzamide] | < 0.01
5 | CN(C)CCCOc1ccc(CNc2ccc(S(=O)(=O)NC(=O)c3ccc(N4CCN(CC5=C(c6ccc(Cl)cc6)CC(C)(C)CC5)CC4)cc3Oc3cnc4[nH]ccc4c3)cc2[N+](=O)[O-])cc1 [Example 197, 4-(4-{[2-(4-chlorophenyl)-4,4-dimethylcyclohex-1-en-1-yl]methyl}piperazin-1-yl)-N-{[4-({4-[3-(dimethylamino)propoxy]benzyl}amino)-3-nitrophenyl]sulfonyl}-2-(1H-pyrrolo[2,3-b]pyridin-5-yloxy)benzamide] | < 0.01
6 | CC1(C)CCC(CN2CCN(c3ccc(C(=O)NS(=O)(=O)c4ccc(NCc5ccc(OCCN6CCOCC6)cc5)c([N+](=O)[O-])c4)c(Oc4cnc5[nH]ccc5c4)c3)CC2)=C(c2ccc(Cl)cc2)C1 [Example 198, 4-(4-{[2-(4-chlorophenyl)-4,4-dimethylcyclohex-1-en-1-yl]methyl}piperazin-1-yl)-N-[(4-{[4-(2-morpholin-4-ylethoxy)benzyl]amino}-3-nitrophenyl)sulfonyl]-2-(1H-pyrrolo[2,3-b]pyridin-5-yloxy)benzamide] | < 0.01
7 | CC1(C)CCC(CN2CCN(c3ccc(C(=O)NS(=O)(=O)c4ccc(NCC56CC7CC(C5)C(O)C(C7)C6)c([N+](=O)[O-])c4)c(Oc4cnc5[nH]ccc5c4)c3)CC2)=C(c2ccc(Cl)cc2)C1 (stereo not drawn) [Example 199, 4-(4-{[2-(4-chlorophenyl)-4,4-dimethylcyclohex-1-en-1-yl]methyl}piperazin-1-yl)-N-{[4-({[(E)-4-hydroxy-1-adamantyl]methyl}amino)-3-nitrophenyl]sulfonyl}-2-(1H-pyrrolo[2,3-b]pyridin-5-yloxy)benzamide] | < 0.01
8 | CC1(C)CCC(CN2CCN(c3ccc(C(=O)NS(=O)(=O)c4ccc(NCC56CC7CC(C5)C(O)C(C7)C6)c([N+](=O)[O-])c4)c(Oc4cnc5[nH]ccc5c4)c3)CC2)=C(c2ccc(Cl)cc2)C1 (stereo not drawn) [Example 200, 4-(4-{[2-(4-chlorophenyl)-4,4-dimethylcyclohex-1-en-1-yl]methyl}piperazin-1-yl)-N-{[4-({[(Z)-4-hydroxy-1-adamantyl]methyl}amino)-3-nitrophenyl]sulfonyl}-2-(1H-pyrrolo[2,3-b]pyridin-5-yloxy)benzamide] | < 0.01
9 | CC1(C)CCC(CN2CCN(c3ccc(C(=O)NS(=O)(=O)c4ccc(OCC5C[C@H]6C=C[C@@H]5C6)c([N+](=O)[O-])c4)c(Oc4cnc5[nH]ccc5c4)c3)CC2)=C(c2ccc(Cl)cc2)C1 (stereo partly drawn) [Example 201, N-({4-[(1S,4S)-bicyclo[2.2.1]hept-5-en-2-ylmethoxy]-3-nitrophenyl}sulfonyl)-4-(4-{[2-(4-chlorophenyl)-4,4-dimethylcyclohex-1-en-1-yl]methyl}piperazin-1-yl)-2-(1H-pyrrolo[2,3-b]pyridin-5-yloxy)benzamide] | 0.014
10 | CN1CC(Nc2ccc(S(=O)(=O)NC(=O)c3ccc(N4CCN(CC5=C(c6ccc(Cl)cc6)CC(C)(C)CC5)CC4)cc3Oc3cnc4[nH]ccc4c3)cc2[N+](=O)[O-])CC1=O (stereo not drawn) [Example 202, 4-(4-{[2-(4-chlorophenyl)-4,4-dimethylcyclohex-1-en-1-yl]methyl}piperazin-1-yl)-N-({4-[(1-methyl-5-oxopyrrolidin-3-yl)amino]-3-nitrophenyl}sulfonyl)-2-(1H-pyrrolo[2,3-b]pyridin-5-yloxy)benzamide] | < 0.01
11 | CC1(C)CCC(CN2CCN(c3ccc(C(=O)NS(=O)(=O)c4ccc(OCC5CCCC(=O)C5)c([N+](=O)[O-])c4)c(Oc4cnc5[nH]ccc5c4)c3)CC2)=C(c2ccc(Cl)cc2)C1 (stereo not drawn) [Example 205, 4-(4-{[2-(4-chlorophenyl)-4,4-dimethylcyclohex-1-en-1-yl]methyl}piperazin-1-yl)-N-({3-nitro-4-[(3-oxocyclohexyl)methoxy]phenyl}sulfonyl)-2-(1H-pyrrolo[2,3-b]pyridin-5-yloxy)benzamide] | < 0.01
12 | CC1(C)C=CC(c2ccc(Cl)cc2)=C(CN2CCN(c3ccc(C(=O)NS(=O)(=O)c4ccc(NCC5CCOCC5)c([N+](=O)[O-])c4)c(Oc4cnc5[nH]ccc5c4)c3)CC2)C1 [Example 206, 4-(4-{[2-(4-chlorophenyl)-5,5-dimethylcyclohexa-1,3-dien-1-yl]methyl}piperazin-1-yl)-N-({3-nitro-4-[(tetrahydro-2H-pyran-4-ylmethyl)amino]phenyl}sulfonyl)-2-(1H-pyrrolo[2,3-b]pyridin-5-yloxy)benzamide] | 0.036
13 | CC1(C)CCC(CN2CCN(c3ccc(C(=O)NS(=O)(=O)c4ccc(N[C@@H]5CCN(C(CF)CF)C5)c([N+](=O)[O-])c4)c(Oc4cnc5[nH]ccc5c4)c3)CC2)=C(c2ccc(Cl)cc2)C1 [Example 207, 4-(4-{[2-(4-chlorophenyl)-4,4-dimethylcyclohex-1-en-1-yl]methyl}piperazin-1-yl)-N-{[4-({(3R)-1-[2-fluoro-1-(fluoromethyl)ethyl]pyrrolidin-3-yl}amino)-3-nitrophenyl]sulfonyl}-2-(1H-pyrrolo[2,3-b]pyridin-5-yloxy)benzamide] | 0.03
14 | CC1(C)CCC(CN2CCN(c3ccc(C(=O)NS(=O)(=O)c4cnc(OCC5(F)CCOCC5)c(C(F)(F)F)c4)c(Oc4cnc5[nH]ccc5c4)c3)CC2)=C(c2ccc(Cl)cc2)C1 [Example 208, 4-(4-{[2-(4-chlorophenyl)-4,4-dimethylcyclohex-1-en-1-yl]methyl}piperazin-1-yl)-N-{[6-[(4-fluorotetrahydro-2H-pyran-4-yl)methoxy]-5-(trifluoromethyl)pyridin-3-yl]sulfonyl}-2-(1H-pyrrolo[2,3-b]pyridin-5-yloxy)benzamide] | 0.104
15 | CC1(C)CCC(CN2CCN(c3ccc(C(=O)NS(=O)(=O)c4ccc(NC[C@@H]5CCN(C6COC6)C5)c([N+](=O)[O-])c4)c(Oc4cnc5[nH]ccc5c4)c3)CC2)=C(c2ccc(Cl)cc2)C1 [Example 209, 4-(4-{[2-(4-chlorophenyl)-4,4-dimethylcyclohex-1-en-1-yl]methyl}piperazin-1-yl)-N-{[3-nitro-4-({[(3S)-1-oxetan-3-ylpyrrolidin-3-yl]methyl}amino)phenyl]sulfonyl}-2-(1H-pyrrolo[2,3-b]pyridin-5-yloxy)benzamide] | < 0.01
16 | CO[C@H]1CC[C@H](COc2ncc(S(=O)(=O)NC(=O)c3ccc(N4CCN(CC5=C(c6ccc(Cl)cc6)CC(C)(C)CC5)CC4)cc3Oc3cnc4[nH]ccc4c3)cc2Cl)CC1 [Example 210, Trans-N-({5-chloro-6-[(4-methoxycyclohexyl)methoxy]pyridin-3-yl}sulfonyl)-4-(4-{[2-(4-chlorophenyl)-4,4-dimethylcyclohex-1-en-1-yl]methyl}piperazin-1-yl)-2-(1H-pyrrolo[2,3-b]pyridin-5-yloxy)benzamide] | 0.011
17 | CO[C@H]1CC[C@@H](COc2ncc(S(=O)(=O)NC(=O)c3ccc(N4CCN(CC5=C(c6ccc(Cl)cc6)CC(C)(C)CC5)CC4)cc3Oc3cnc4[nH]ccc4c3)cc2Cl)CC1 [Example 211, Cis-N-({5-chloro-6-[(4-methoxycyclohexyl)methoxy]pyridin-3-yl}sulfonyl)-4-(4-{[2-(4-chlorophenyl)-4,4-dimethylcyclohex-1-en-1-yl]methyl}piperazin-1-yl)-2-(1H-pyrrolo[2,3-b]pyridin-5-yloxy)benzamide] | 0.058
18 | COCCOCCN1CCOC(CNc2ccc(S(=O)(=O)NC(=O)c3ccc(N4CCN(CC5=C(c6ccc(Cl)cc6)CC(C)(C)CC5)CC4)cc3Oc3cnc4[nH]ccc4c3)cc2[N+](=O)[O-])C1 (stereo not drawn) [Example 213, 4-(4-{[2-(4-chlorophenyl)-4,4-dimethylcyclohex-1-en-1-yl]methyl}piperazin-1-yl)-N-({4-[({4-[2-(2-methoxyethoxy)ethyl]morpholin-2-yl}methyl)amino]-3-nitrophenyl}sulfonyl)-2-(1H-pyrrolo[2,3-b]pyridin-5-yloxy)benzamide] | < 0.01
